The record followed here is patent US10092570B2 (Incyte Corporation, priority 2011, dated 2018).

One experiment has as its target PI3Kδ (p110δ/p85α) (Homo sapiens (Human), UniProt O00329). The experiment in a line: Example A3: PI3Kδ scintillation proximity assay. Type of experiment: biochemical. As to conditions: scintillation proximity assay, 20 μM ATP, 4 nM PI3Kδ; read-out: PI3Kδ SPA IC50. A digest of the protocol: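 p110δ/p85α (4 nM) phosphorylated 20 μM PIP2 with 20 μM ATP plus [γ-33P]ATP in MOPS pH 6.7, MgCl2, DTT, CHAPS, 0.5% DMSO, at RT. Stopped with EDTA/excess ATP, product captured on WGA SPA beads overnight and counted; IC50 from percent control activity versus log inhibitor.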
For orientation: SPA uses beads or plates that emit light when radiolabelled molecules are held near them.

For experiment [1], the system named is Pfeiffer cell line (diffuse large B cell lymphoma). In words: Example B2: Pfeiffer cell proliferation assay. To be noted: Pfeiffer cells, [3H]-thymidine incorporation. Type of experiment: cell-based. On the procedure:
Pfeiffer cell line (diffuse large B cell lymphoma) are purchased from ATCC (Manassas, Va.) and maintained in the culture medium recommended (RPMI and 10% FBS). To measure the anti-proliferation activity of the compounds, the Pfeiffer cells are plated with the culture medium (2×10^3 cells/well/per 200 μl) into 96-well ultra-low binding plates (Corning, Corning, N.Y.), in the presence or absence of a concentration range of test compounds. After 3-4 days, [^3H]-thymidine (1 μCi/well) (PerkinElmer, Boston, Mass.) in PBS is then added to the cell culture for an additional 12 hours before the incorporated radioactivity is separated by filtration with water through GF/B filters (Packard Bioscience, Meridenj, Conn.) and measured by liquid scintillation counting with a TopCount (Packard Bioscience).
In general terms: Dividing cells build labelled thymidine or BrdU into new DNA.

For the next experiment, the target named is PI3K isoform δ (Homo sapiens (Human), UniProt O00329). The experiment in a line: Example A2: PI3K enzyme assay ([γ-33P]ATP filter plate), PI3Kδ. Type of experiment: biochemical. As to conditions: as determined by Assay A2. The method, then:
PI3K isoforms α, β, δ and γ are purchased from Millipore (Bedford, Mass.).
Inhibitors are first diluted serially in DMSO and added to the plate wells before the addition of other reaction components. The final concentration of DMSO in the assay is 0.5%. The PI3K assays are carried out at room temperature in 20 mM MOPS, pH 6.7, 10 mM MgCl2, 5 mM DTT and CHAPS 0.03%. The reaction mixture is prepared containing 50 μM PIP2, kinase and varying concentration of inhibitors. Reactions are initiated by the addition of ATP containing 2.2 μCi [γ-^33P]ATP to a final concentration of 1000 μM. […] Reactions are incubated for 180 minutes and terminated by the addition of 100 μL of 1 M potassium phosphate pH 8.0, 30 mM EDTA quench buffer. A 100 μL aliquot of the reaction solution are then transferred to 96-well Millipore MultiScreen IP 0.45 μm PVDF filter plate (The filter plate is prewetted with 200 μL 100% ethanol, distilled water, and 1 M potassium phosphate pH 8.0, respectively). […] After drying by aspiration and blotting, the plate is air dried in an incubator at 37° C. overnight. Packard TopCount adapter (Millipore) is then attached to the plate followed with addition of 120 μL Microscint 20 scintillation cocktail (Perkin Elmer) in each well. After the plate sealing, the radioactivity of the product is determined by scintillation counting on Topcount (Perkin-Elmer). […]

A value given as a limit tells only on which side of the number the result lay.

Usually IC50 stands for the concentration at which inhibition is half-maximal.

Chain of PI3Kδ (p110δ/p85α) (O00329 whole entry): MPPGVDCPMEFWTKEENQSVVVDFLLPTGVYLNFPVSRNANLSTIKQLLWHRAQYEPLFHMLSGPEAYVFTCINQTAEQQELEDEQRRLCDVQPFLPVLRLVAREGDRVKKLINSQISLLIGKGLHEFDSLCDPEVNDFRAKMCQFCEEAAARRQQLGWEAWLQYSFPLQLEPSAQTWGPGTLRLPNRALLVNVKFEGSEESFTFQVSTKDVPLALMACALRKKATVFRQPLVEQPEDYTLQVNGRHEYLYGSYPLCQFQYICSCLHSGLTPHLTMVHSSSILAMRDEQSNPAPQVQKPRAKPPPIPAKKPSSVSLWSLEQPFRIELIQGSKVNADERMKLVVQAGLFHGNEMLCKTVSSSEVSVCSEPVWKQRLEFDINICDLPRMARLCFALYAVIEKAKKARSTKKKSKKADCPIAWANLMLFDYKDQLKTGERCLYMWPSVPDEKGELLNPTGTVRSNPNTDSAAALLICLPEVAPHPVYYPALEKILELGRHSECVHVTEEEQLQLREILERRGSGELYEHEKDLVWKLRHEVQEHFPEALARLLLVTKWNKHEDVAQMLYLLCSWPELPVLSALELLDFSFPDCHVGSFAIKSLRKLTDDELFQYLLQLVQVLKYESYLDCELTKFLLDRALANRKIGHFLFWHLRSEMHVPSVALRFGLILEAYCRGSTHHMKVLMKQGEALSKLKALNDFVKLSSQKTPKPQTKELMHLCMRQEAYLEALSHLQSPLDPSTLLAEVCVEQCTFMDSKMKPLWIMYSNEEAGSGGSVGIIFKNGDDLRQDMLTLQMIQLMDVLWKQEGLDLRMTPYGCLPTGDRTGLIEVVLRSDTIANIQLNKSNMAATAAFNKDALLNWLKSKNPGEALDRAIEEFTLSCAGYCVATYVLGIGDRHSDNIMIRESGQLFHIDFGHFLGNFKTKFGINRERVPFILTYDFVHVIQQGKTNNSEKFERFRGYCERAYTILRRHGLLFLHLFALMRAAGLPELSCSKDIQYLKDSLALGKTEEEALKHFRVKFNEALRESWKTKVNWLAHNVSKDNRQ
Chain of PI3Kδ (p110δ/p85α) (P27986 whole entry partner): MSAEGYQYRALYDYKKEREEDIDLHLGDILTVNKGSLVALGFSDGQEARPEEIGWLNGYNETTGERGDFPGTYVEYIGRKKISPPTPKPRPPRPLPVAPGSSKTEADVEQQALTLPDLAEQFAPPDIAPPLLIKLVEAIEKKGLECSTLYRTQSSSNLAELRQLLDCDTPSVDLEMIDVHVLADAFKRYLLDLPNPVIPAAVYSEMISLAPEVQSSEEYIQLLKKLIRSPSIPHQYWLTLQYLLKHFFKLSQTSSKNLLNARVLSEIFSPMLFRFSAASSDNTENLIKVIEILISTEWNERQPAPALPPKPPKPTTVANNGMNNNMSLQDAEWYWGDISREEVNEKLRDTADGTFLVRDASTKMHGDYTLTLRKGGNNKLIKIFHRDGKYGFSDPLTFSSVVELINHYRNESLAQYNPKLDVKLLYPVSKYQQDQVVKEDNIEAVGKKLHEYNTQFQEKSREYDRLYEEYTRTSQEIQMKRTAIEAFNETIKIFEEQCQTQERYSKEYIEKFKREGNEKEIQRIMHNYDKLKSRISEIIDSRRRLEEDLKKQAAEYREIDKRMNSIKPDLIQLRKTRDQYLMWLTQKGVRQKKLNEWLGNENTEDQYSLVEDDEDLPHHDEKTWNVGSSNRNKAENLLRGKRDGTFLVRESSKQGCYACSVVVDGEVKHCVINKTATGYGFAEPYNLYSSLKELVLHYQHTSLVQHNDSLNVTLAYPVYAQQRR
Chain of PI3K isoform δ (O00329 whole entry, canonical isoform): as the sequence (O00329 whole entry) above
Chain of PI3K isoform δ (P27986 whole entry partner, canonical isoform): as the sequence (P27986 whole entry partner) above

As to `CCOc1c(C(C)n2nc(C(F)F)c3c(N)ncnc32)cc(Cl)c(F)c1C1CN(C[C@H](C)O)C1` (stereo partly drawn) [Example 154, (2S)-1-[3-(3-{1-[4-Amino-3-(difluoromethyl)-1H-pyrazolo[3,4-d]pyrimidin-1-yl]ethyl}-5-chloro-2-ethoxy-6-fluorophenyl)azetidin-1-yl]propan-2-ol], the IC50 is under 10 nM at PI3Kδ (p110δ/p85α) and under 10 nM in experiment [1] (Homo sapiens, Pfeiffer).
On to `COc1c(C(C)n2nc(C)c3c(N)ncnc32)cc(Cl)c(C)c1C1CN(CC(C)O)C1` (stereo in doubt) [Example 102, (2S)-1-(3-{3-[1-(4-Amino-3-methyl-1H-pyrazolo[3,4-d]pyrimidin-1-yl)ethyl]-5-chloro-2-methoxy-6-methylphenyl}azetidin-1-yl)propan-2-ol], for which the IC50 is under 10 nM on PI3Kδ (p110δ/p85α) and under 10 nM in experiment [1] (Homo sapiens, Pfeiffer).
On to `COc1c(C(C)n2nc(C)c3c(N)ncnc32)cc(Cl)c(C#N)c1C1CN(C)C1` (single isomer, unassigned) [Example 262, 4-[1-(4-Amino-3-methyl-1H-pyrazolo[3,4-d]pyrimidin-1-yl)ethyl]-6-chloro-3-methoxy-2-(1-methylazetidin-3-yl)benzonitrile], for which the IC50 on PI3Kδ (p110δ/p85α) was under 10 nM; in experiment [1] (Homo sapiens, Pfeiffer), under 10 nM.
`CCOc1c(C(C)n2nc(C)c3c(N)ncnc32)cc(Cl)c(C#N)c1C1CN(C[C@@H](C)O)C1` (stereo partly drawn) [Example 221, 4-[1-(4-Amino-3-methyl-1H-pyrazolo[3,4-d]pyrimidin-1-yl)ethyl]-6-chloro-3-ethoxy-2-{1-[(2R)-2-hydroxypropyl]azetidin-3-yl}benzonitrile]: the IC50 on PI3Kδ (p110δ/p85α) was under 10 nM; in experiment [1] (Homo sapiens, Pfeiffer) it was under 10 nM.
Regarding `COc1c(C(C)n2nc(C)c3c(N)ncnc32)cc(Cl)c(C#N)c1C1CN(C[C@@H](C)O)C1` (stereo partly drawn) [Example 270, 4-[1-(4-Amino-3-methyl-1H-pyrazolo[3,4-d]pyrimidin-1-yl)ethyl]-6-chloro-2-{1-[(2R)-2-hydroxypropyl]azetidin-3-yl}-3-methoxybenzonitrile], the IC50 on PI3Kδ (p110δ/p85α) was under 10 nM; in experiment [1] (Homo sapiens, Pfeiffer) it was under 10 nM.
Turning to `CCOc1c(C(C)n2nc(C)c3c(N)ncnc32)cc(Cl)c(F)c1C1CNC(=O)O1` (single isomer, unassigned) [Example 357, 5-{3-[1-(4-amino-3-methyl-1H-pyrazolo[3,4-d]pyrimidin-1-yl)ethyl]-5-chloro-2-ethoxy-6-fluorophenyl}-1,3-oxazolidin-2-one], the IC50 at PI3Kδ (p110δ/p85α) was under 10 nM; in experiment [1] (Homo sapiens, Pfeiffer) it was under 10 nM.
The compound `COc1c([C@@H](C)n2nc(C)c3c(N)ncnc32)cc(Cl)c(C#N)c1C1CN(C[C@H](C)O)C1` [Example 361, 4-((R)-1-(4-amino-3-methyl-1H-pyrazolo[3,4-d]pyrimidin-1-yl)ethyl)-6-chloro-2-(1-((S)-2-hydroxypropyl)azetidin-3-yl)-3-methoxybenzonitrile] came in with an IC50 against PI3K isoform δ of over 500 nM.
In the case of `COc1c(C(C)n2nc(C)c3c(N)ncnc32)cc(Cl)c(C)c1C1CN(CCO)C1` (single isomer, unassigned) [Example 104, 2-(3-{3-[1-(4-Amino-3-methyl-1H-pyrazolo[3,4-d]pyrimidin-1-yl)ethyl]-5-chloro-2-methoxy-6-methylphenyl}azetidin-1-yl)ethanol], the IC50 on PI3Kδ (p110δ/p85α) is under 10 nM; in experiment [1] (Homo sapiens, Pfeiffer) it was 10 to 50 nM.
On the same counts, the results for `CCOc1c(C(C)n2nc(C)c3c(N)ncnc32)cc(Cl)c(F)c1C1CN(CC(C)(C)O)C1` (racemic) [Example 140, 1-(3-{3-[1-(4-Amino-3-methyl-1H-pyrazolo[3,4-d]pyrimidin-1-yl)ethyl]-5-chloro-2-ethoxy-6-fluorophenyl}azetidin-1-yl)-2-methylpropan-2-ol] are under 10 nM and under 10 nM.
Consider `CCOc1c(C(C)n2nc(C)c3c(N)ncnc32)cc(Cl)c(C#N)c1C1CN(C[C@H](C)O)C1` (stereo partly drawn) [Example 220, 4-[1-(4-Amino-3-methyl-1H-pyrazolo[3,4-d]pyrimidin-1-yl)ethyl]-6-chloro-3-ethoxy-2-{1-[(2S)-2-hydroxypropyl]azetidin-3-yl}benzonitrile], for which the IC50 is under 10 nM at PI3Kδ (p110δ/p85α) and under 10 nM in experiment [1] (Homo sapiens, Pfeiffer).
In the case of `CCOc1c(C(C)n2nc(C)c3c(N)ncnc32)cc(Cl)c(C#N)c1C1CN(C)C1` (single isomer, unassigned) [Example 213, 4-[1-(4-Amino-3-methyl-1H-pyrazolo[3,4-d]pyrimidin-1-yl)ethyl]-6-chloro-3-ethoxy-2-(1-methylazetidin-3-yl)benzonitrile], the IC50 on PI3Kδ (p110δ/p85α) is under 10 nM; in experiment [1] (Homo sapiens, Pfeiffer), under 10 nM.
Take `COc1c(C(C)n2nc(C)c3c(N)ncnc32)cc(Cl)c(C)c1C1CN(C[C@@H](C)O)C1` (single isomer, unassigned) [Example 103]: the figures for the IC50 (at PI3Kδ (p110δ/p85α); in experiment [1]) were under 10 nM and 10 to 50 nM, respectively.
With `CCOc1c(C(C)n2nc(C)c3c(N)ncnc32)cc(Cl)c(F)c1C1CN(C[C@@H](C)O)C1` (stereo partly drawn) [Example 142, (2R)-1-(3-{3-[1-(4-Amino-3-methyl-1H-pyrazolo[3,4-d]pyrimidin-1-yl)ethyl]-5-chloro-2-ethoxy-6-fluorophenyl}azetidin-1-yl)propan-2-ol], the IC50 on PI3Kδ (p110δ/p85α) is under 10 nM; in experiment [1] (Homo sapiens, Pfeiffer), under 10 nM.
